Consider two compounds from ChEMBL document CHEMBL6114969, “Ultra-short lipopeptides containing d-amino acid exhibiting excellent stability and antibacterial activity against gram-positive bacteria” (Eur J Med Chem, 2025).

SMILES strings stand for the structures. The source made the active and inactive calls. The calls are words filed in the database; no cut-off is given here. Where a SMILES comes first, the peptide text is derived from it. Bridges are numbered along the chain shown (N, C = ends). [ ]: non-standard residue; d: D form. The star is where a group is joined. X1 = CC[C@H](C)CCCCC(=O)*; Dab = NCC[C@H](N)C(=O)O

For data set [1], the system named is Staphylococcus aureus. Put plainly: Antibacterial activity against polymyxin B-resistant methicillin-resistant Staphylococcus aureus ATCC 33591 incubated for 18 to 24 hrs. The format is functional. The settings on record: time 18-24 hrs.
For data set [2], the system named is Staphylococcus aureus. Put plainly: Antibacterial activity against methicillin-resistant Staphylococcus aureus ATCC 33591 incubated for 18 to 24 hrs by broth microdilution method. The format is functional. The following applies: time 18-24 hrs.
Data set [3] deals with Enterococcus faecalis. Put plainly: Antibacterial activity against Enterococcus faecalis ATCC 29212 incubated for 18 to 24 hrs by broth microdilution method. The format is functional. The following applies: time 18-24 hrs. Background: Broth dilution looks for growth in wells or tubes with falling amounts of substance.
Data set [4] has as its system Staphylococcus aureus. Put plainly: Induction of drug resistance in Staphylococcus aureus ATCC 25923 assessed as fold increase in MIC at sub-MIC measured after 7 passages relative to control. The format is functional.
Data set [5] deals with Staphylococcus aureus. Put plainly: Induction of drug resistance in methicillin-resistant Staphylococcus aureus ATCC 33591 at sub-MIC measured after 4 passages. The format is functional, organism-based.
Data set [6] has as its system Staphylococcus aureus. Put plainly: Antibacterial activity against drug-resistant methicillin-resistant Staphylococcus aureus ATCC 33591 incubated for 18 to 24 hrs. It is filed as functional. The settings on record: time 18-24 hrs.
For data set [7], the system named is Staphylococcus aureus. Put plainly: Antibacterial activity against drug-resistant Staphylococcus aureus ATCC 25923 incubated for 18 to 24 hrs. The format is functional. The following applies: time 18-24 hrs.
Data set [8] deals with Staphylococcus aureus. Put plainly: Antibacterial activity against Staphylococcus aureus ATCC 25923 incubated for 18 to 24 hrs by broth microdilution method. The format is functional. The settings on record: time 18-24 hrs.
In data set [9] the test system is Staphylococcus aureus. Put plainly: Induction of drug resistance in Staphylococcus aureus ATCC 25923 at sub-MIC measured after 2 passages. It is filed as functional, organism-based.
Data set [10] concerns Staphylococcus epidermidis. Put plainly: Antibacterial activity against Staphylococcus epidermidis ATCC 12228 incubated for 18 to 24 hrs by broth microdilution method. The format is functional. The settings on record: time 18-24 hrs.
The test system of data set [11] is Staphylococcus aureus. Put plainly: Antibacterial activity against ciprofloxacin-resistant Staphylococcus aureus ATCC 25923 incubated for 18 to 24 hrs. The settings on record: time 18-24 hrs. It is filed as functional.
Data set [12] concerns Staphylococcus aureus. Put plainly: Antibacterial activity against ciprofloxacin-resistant methicillin-resistant Staphylococcus aureus ATCC 33591 incubated for 18 to 24 hrs. It is filed as functional. The following applies: time 18-24 hrs.
The test system of data set [13] is Staphylococcus aureus. Put plainly: Antibacterial activity against polymyxin B-resistant Staphylococcus aureus ATCC 25923 incubated for 18 to 24 hrs. It is filed as functional. The following applies: time 18-24 hrs.
Data set [14] concerns Staphylococcus aureus. Put plainly: Antibacterial activity against Staphylococcus aureus ATCC 29213 incubated for 18 to 24 hrs by broth microdilution method. It is filed as functional. The settings on record: time 18-24 hrs.
In data set [15] the test system is Staphylococcus aureus. Put plainly: Induction of drug resistance in methicillin-resistant Staphylococcus aureus ATCC 33591 assessed as fold increase in MIC at sub-MIC measured after 8 passages relative to control. It is filed as functional.
The nature of data set [16]: Toxicity in Balb/c mouse assessed as change in serum ALT level at 20 mg/kg, ip measured after 7 days. It is filed as organism-based. The following applies: in vivo, 168 h, time 7 day.
A short description of data set [17]: Toxicity in Balb/c mouse assessed as spleen atrophy at 20 mg/kg, ip measured after 7 days. The settings on record: in vivo, 168 h, time 7 day. The format is organism-based.
Data set [18] in a line: Toxicity in Balb/c mouse assessed as kidney pigmentation at 20 mg/kg, ip measured after 7 days. The format is organism-based. The following applies: in vivo, 168 h, time 7 day.
Data set [19] in a line: Toxicity in Balb/c mouse assessed as change in serum CREA level at 20 mg/kg, ip measured after 7 days. It is filed as organism-based. The settings on record: in vivo, 168 h, time 7 day.
Data set [20] can be described thus: Toxicity in Balb/c mouse assessed as change in serum AST level at 20 mg/kg, ip measured after 7 days. The following applies: in vivo, 168 h, time 7 day. It is filed as organism-based.
Data set [21] in a line: Toxicity in Balb/c mouse assessed as cell swelling in liver at 20 mg/kg, ip measured after 7 days by H and E staining based analysis. The settings on record: in vivo, 168 h, time 7 day. It is filed as organism-based.
The nature of data set [22]: Toxicity in Balb/c mouse assessed as inflammatory cell infiltration in liver at 20 mg/kg, ip measured after 7 days by H and E staining based analysis. It is filed as organism-based. The following applies: in vivo, 168 h, time 7 day.
The nature of data set [23]: Toxicity in Balb/c mouse assessed as spleen pigmentation at 20 mg/kg, ip measured after 7 days. The settings on record: in vivo, 168 h, time 7 day. The format is organism-based.
A short description of data set [24]: Toxicity in Balb/c mouse assessed as change in liver co-efficient at 20 mg/kg, ip measured after 7 days. It is filed as organism-based. The following applies: in vivo, 168 h, time 7 day.
A short description of data set [25]: Toxicity in Balb/c mouse assessed as cell swelling in kidney at 20 mg/kg, ip measured after 7 days by H and E staining based analysis. The format is organism-based. The following applies: in vivo, 168 h, time 7 day.
Data set [26] in a line: Toxicity in Balb/c mouse assessed as cell swelling in spleen at 20 mg/kg, ip measured after 7 days by H and E staining based analysis. The format is organism-based. The settings on record: in vivo, 168 h, time 7 day.
Data set [27] in a line: Toxicity in Balb/c mouse assessed as kidney atrophy at 20 mg/kg, ip measured after 7 days. It is filed as organism-based. The following applies: in vivo, 168 h, time 7 day.
The nature of data set [28]: Toxicity in Balb/c mouse assessed as cell swelling in lung at 20 mg/kg, ip measured after 7 days by H and E staining based analysis. The following applies: in vivo, 168 h, time 7 day. It is filed as organism-based.
A short description of data set [29]: Toxicity in Balb/c mouse assessed as inflammatory cell infiltration in kidney at 20 mg/kg, ip measured after 7 days by H and E staining based analysis. The settings on record: in vivo, 168 h, time 7 day. The format is organism-based.
Data set [30] is described as follows: Toxicity in Balb/c mouse assessed as change in serum BUN level at 20 mg/kg, ip measured after 7 days. It is filed as organism-based. The following applies: in vivo, 168 h, time 7 day.

One may read the MIC as the lowest concentration that inhibits growth of the organism. As for `CNC(C)[C@@H]1CC[C@@H](N)[C@@H](O[C@H]2[C@H](O)[C@@H](O[C@H]3OC[C@](C)(O)[C@H](NC)[C@H]3O)[C@H](N)C[C@@H]2N)O1.CN[C@@H]1[C@@H](O)[C@@H](O[C@@H]2[C@@H](O)[C@H](O[C@H]3O[C@H](C(C)N)CC[C@H]3N)[C@@H](N)C[C@H]2N)OC[C@]1(C)O.CN[C@@H]1[C@@H](O)[C@@H](O[C@@H]2[C@@H](O)[C@H](O[C@H]3O[C@H](CN)CC[C@H]3N)[C@@H](N)C[C@H]2N)OC[C@]1(C)O` (stereo not given in full), the MIC was over 128 µM in data set [1]; 128 µM in data set [2]; 16 µM in data set [3]; 128 µM in [6]; 128 µM in data set [7]; 16 µM in data set [8]. In addition, the MIC in data set [10] is 1 µM; in data set [11], 128 µM; in [12], over 128 µM; in data set [13], 128 µM; in data set [14] it was 16 µM. The “fold change (FC)” value in data set [4] is on record as 64; in data set [15] it was 256. Also, the outcome in data set [5] and in data set [9] was Active.
With `CC(C)CCCCC(=O)N[C@@H](CCN)C(=O)N[C@H](C(=O)N[C@@H](CCN)C(=O)N[C@H]1CCNC(=O)[C@H]([C@@H](C)O)NC(=O)[C@H](CCN)NC(=O)[C@H](CCN)NC(=O)[C@H](CC(C)C)NC(=O)[C@@H](Cc2ccccc2)NC(=O)[C@H](CCN)NC1=O)[C@@H](C)O.CC[C@H](C)CCCCC(=O)N[C@@H](CCN)C(=O)N[C@H](C(=O)N[C@@H](CCN)C(=O)N[C@H]1CCNC(=O)[C@H]([C@@H](C)O)NC(=O)[C@H](CCN)NC(=O)[C@H](CCN)NC(=O)[C@H](CC(C)C)NC(=O)[C@@H](Cc2ccccc2)NC(=O)[C@H](CCN)NC1=O)[C@@H](C)O` (X1-[Dab]T[Dab][Dab][Dab][dF]L[Dab][Dab]T; lactam 4-C), the Activity result is recorded as “Non-toxic” in data set [16]; “Toxic” in data set [17]; “Toxic” in data set [18]; “Toxic” in [19]; “Non-toxic” in data set [20]; “Toxic” in data set [21]. Further, the Activity result in data set [22], in data set [23], in [24], in [25], in data set [26] and in data set [27] was “Toxic” each time. The results for the Activity entry in data set [28], in data set [29] and in data set [30] were “Toxic”, “Toxic” and “Non-toxic”, respectively.
